In PMC9413568, “Application of COSMO-RS-DARE as a Tool for Testing Consistency of Solubility Data: Case of Coumarin in Neat Alcohols” (Molecules, 2022):

Assays:
[1] = shake-flask solubility of coumarin in neat alcohols, spectrophotometric determination; format: physicochemical; conditions: mean ± SD, n = 3
Description: This solution was then successfully diluted by transferring its fixed amounts to 10 mL volumetric flasks and adding methanol. The obtained series of solutions with decreasing coumarin concentrations was measured spectrophotometrically, and the absorbance values found at 310 nm wavelength were plotted against the corresponding concentration values. Three separate curves were prepared and then averaged, with the resulting linear equation being y = 42.346x + 0.0085. The curve can be characterized by high linearity, with the determination coefficient of R^2 = 0.9997. […] In this study, the shake-flask-type method of solubility determination was used. […] The prepared samples were incubated for 24 h at four different temperatures (25-40 °C with 5 °C intervals) using an ES-20/60 Orbital Shaker Incubator supplied by Biosan (Riga, Latvia). The temperature adjustment accuracy was 0.1 °C, and its variance during the daily cycle was ±0.5 °C. Moreover, the mixing of the samples at 60 rev/min was provided by the incubator. In the next step, the samples were filtered using a syringe with a PTFE filter with a […] pore size. All of the test tubes, syringes, and filters were preheated to the appropriate temperature to avoid the precipitation of dissolved coumarin. Finally, fixed amounts of the filtrate were transferred to test tubes, which were prefilled with a set amount of methanol, and samples prepared in this way were measured spectrophotometrically. The concentration of coumarin in the samples was determined through spectrophotometric measurements using an […] spectrophotometer from AOE Instruments (Shanghai, China). Spectra in the 190-700 nm wavelength range were recorded with a 1 nm resolution, and samples were diluted with methanol, which was also used as a reference. The absorbance values at 310 nm were used in conjunction with the calibration curve prepared earlier. Three samples were measured for each data point, and their concentrations were averaged and expressed as mole fractions.

[2] = set-up: method as in PMID 18583357; conditions: dependence on pH; cited from earlier work

Q: What does the source list for `O=c1ccc2ccccc2o1` [coumarin, 2H-1-benzopyran-2-one]?
A: solubility expressed as molar fraction ([1]; 1-butanol, 25 °C): 16.95 ± 1.09 molar fraction ×10^3; solubility expressed as molar fraction ([1]; 1-butanol, 30 °C): 34.87 ± 1.34 molar fraction ×10^3; solubility expressed as molar fraction ([1]; 1-butanol, 35 °C): 60.64 ± 0.77 molar fraction ×10^3; solubility expressed as molar fraction ([1]; 1-butanol, 40 °C): 94.59 ± 2.12 molar fraction ×10^3; solubility expressed as molar fraction ([1]; 1-octanol, 25 °C): 19.18 ± 0.67 molar fraction ×10^3; solubility expressed as molar fraction ([1]; 1-octanol, 30 °C): 37.37 ± 1.24 molar fraction ×10^3; solubility expressed as molar fraction ([1]; 1-octanol, 35 °C): 67.23 ± 2.91 molar fraction ×10^3; solubility expressed as molar fraction ([1]; 1-octanol, 40 °C): 104.05 ± 0.71 molar fraction ×10^3; solubility expressed as molar fraction ([1]; 1-pentanol, 25 °C): 19.66 ± 0.28 molar fraction ×10^3; solubility expressed as molar fraction ([1]; 1-pentanol, 30 °C): 42.95 ± 1.59 molar fraction ×10^3; solubility expressed as molar fraction ([1]; 1-pentanol, 35 °C): 77.44 ± 0.55 molar fraction ×10^3; solubility expressed as molar fraction ([1]; 1-pentanol, 40 °C): 126.01 ± 7.64 molar fraction ×10^3; solubility expressed as molar fraction ([1]; 1-propanol, 25 °C): 41.02 ± 0.72 molar fraction ×10^3; solubility expressed as molar fraction ([1]; 1-propanol, 30 °C): 74.27 ± 2.42 molar fraction ×10^3; solubility expressed as molar fraction ([1]; 1-propanol, 35 °C): 121.65 ± 5.97 molar fraction ×10^3; solubility expressed as molar fraction ([1]; 1-propanol, 40 °C): 181.10 ± 4.99 molar fraction ×10^3; solubility expressed as molar fraction ([1]; 2-propanol, 25 °C): 30.17 ± 0.60 molar fraction ×10^3; solubility expressed as molar fraction ([1]; 2-propanol, 30 °C): 60.35 ± 1.81 molar fraction ×10^3; solubility expressed as molar fraction ([1]; 2-propanol, 35 °C): 101.22 ± 4.59 molar fraction ×10^3; solubility expressed as molar fraction ([1]; 2-propanol, 40 °C): 154.88 ± 5.76 molar fraction ×10^3; solubility expressed as molar fraction ([1]; ethanol, 25 °C): 49.43 ± 2.59 molar fraction ×10^3; solubility expressed as molar fraction ([1]; ethanol, 30 °C): 90.16 ± 5.57 molar fraction ×10^3; solubility expressed as molar fraction ([1]; ethanol, 35 °C): 142.45 ± 5.12 molar fraction ×10^3; solubility expressed as molar fraction ([1]; ethanol, 40 °C): 210.96 ± 6.24 molar fraction ×10^3; solubility expressed as molar fraction ([1]; methanol, 25 °C): 77.01 ± 4.68 molar fraction ×10^3; solubility expressed as molar fraction ([1]; methanol, 30 °C): 127.52 ± 5.07 molar fraction ×10^3; solubility expressed as molar fraction ([1]; methanol, 35 °C): 196.63 ± 7.30 molar fraction ×10^3; solubility expressed as molar fraction ([1]; methanol, 40 °C): 286.50 ± 6.20 molar fraction ×10^3; aqueous solubility [2]: decreases with the increase of pH
